Several values for one entry are separate records, joined by “and”; a condition that tells them apart may be missing. Identical values can stand only once.
Assays:
[1] = HPLC studies of reaction kinetics of tetrazine prodrugs with cyclooctyne alkynes (Kobs, second-order rate constant k2); assay type: physicochemical; conditions: for Kobs: prodrug 25 μM; for k2 at 37° C. (second order rate constant) / k2 at r.t (second order rate constant): PBS containing 10% DMSO, n = 3
Outline: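 Tetrazine prodrug (25 μM) reacted with alkyne at 0.75, 1 and 1.25 mM in PBS with 10% DMSO, at room temperature or 37 °C. Prodrug HPLC peak area was sampled every 30 min and fitted to single exponential decay for kobs; k2 was taken as the slope of kobs versus alkyne concentration.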

[2] = Stability of tetrazine prodrugs in PBS with or without 1 mM cysteine (HPLC); assay type: physicochemical; conditions: 25 μM, n = 4
Protocol: Due to the electron deficient nature of the tetrazine moiety, the stability of the tetrazine-linked prodrugs in the presence of high concentrations of thiol species was studied. In general, a solution of tetrazine prodrug (500 μL, 500 μM) was added to either 9.5 mL of PBS or 1 mM cysteine solution in PBS in a 20-mL vial. The solution was stirred at r.t. or 37° C. for 24 h. The reaction solution was injected into HPLC, and analyzed with Method A (described above) for prodrugs 1b and 1c, and Method B for prodrug 1d.
Prodrug (1d or 1b, 25 μM in PBS alone or in the presence of 1 mM cysteine (Cys) in PBS) was incubated at r.t or 37° C. for 24 h. Then HPLC was used to monitor the concentration of the remaining prodrug (Table 5). No stability problems were observed.

With `C#CCOc1ccc(-c2nnc(C(=O)NCCCOCCOCCOCCCNS(=O)(=O)c3cccc4c(N(C)C)cccc34)nn2)cc1` [1d] the Kobs ([1]; 37° C., alkyne 2b 0.75 mM, Expt. 1) was 0.411 h⁻¹, the Kobs ([1]; 37° C., alkyne 2b 0.75 mM, Expt. 2) was 0.388 h⁻¹ and the Kobs ([1]; 37° C., alkyne 2b 0.75 mM, Expt. 3) was 0.353 h⁻¹. It also gave a Kobs ([1]; 37° C., alkyne 2b 1.00 mM, Expt. 1) of 0.548 h⁻¹, a Kobs ([1]; 37° C., alkyne 2b 1.00 mM, Expt. 2) of 0.511 h⁻¹ and a Kobs ([1]; 37° C., alkyne 2b 1.00 mM, Expt. 3) of 0.453 h⁻¹. The Kobs ([1]; 37° C., alkyne 2b 1.25 mM, Expt. 1) was 0.695 h⁻¹, the Kobs ([1]; 37° C., alkyne 2b 1.25 mM, Expt. 2) was 0.636 h⁻¹ and the Kobs ([1]; 37° C., alkyne 2b 1.25 mM, Expt. 3) was 0.561 h⁻¹. The Kobs ([1]; 37° C., alkyne 2c 0.75 mM, Expt. 1) was 0.0506 h⁻¹, the Kobs ([1]; 37° C., alkyne 2c 0.75 mM, Expt. 2) was 0.0584 h⁻¹ and the Kobs ([1]; 37° C., alkyne 2c 0.75 mM, Expt. 3) was 0.0599 h⁻¹. It also gave a Kobs ([1]; 37° C., alkyne 2c 1.00 mM, Expt. 1) of 0.0670 h⁻¹, a Kobs ([1]; 37° C., alkyne 2c 1.00 mM, Expt. 2) of 0.0781 h⁻¹ and a Kobs ([1]; 37° C., alkyne 2c 1.00 mM, Expt. 3) of 0.0801 h⁻¹. For the same molecule, the Kobs ([1]; 37° C., alkyne 2c 1.25 mM, Expt. 1) was 0.083 h⁻¹, the Kobs ([1]; 37° C., alkyne 2c 1.25 mM, Expt. 2) was 0.0978 h⁻¹ and the Kobs ([1]; 37° C., alkyne 2c 1.25 mM, Expt. 3) was 0.101 h⁻¹. The Kobs ([1]; 37° C., alkyne 2d 0.25 mM, Expt. 1) was 1.82 h⁻¹, the Kobs ([1]; 37° C., alkyne 2d 0.25 mM, Expt. 2) was 1.64 h⁻¹ and the Kobs ([1]; 37° C., alkyne 2d 0.25 mM, Expt. 3) was 1.90 h⁻¹. For the same molecule, the Kobs ([1]; 37° C., alkyne 2d 0.3 mM, Expt. 1) was 2.15 h⁻¹, the Kobs ([1]; 37° C., alkyne 2d 0.3 mM, Expt. 2) was 1.94 h⁻¹ and the Kobs ([1]; 37° C., alkyne 2d 0.3 mM, Expt. 3) was 2.26 h⁻¹. The Kobs ([1]; 37° C., alkyne 2d 0.35 mM, Expt. 1) was 2.53 h⁻¹, the Kobs ([1]; 37° C., alkyne 2d 0.35 mM, Expt. 2) was 2.25 h⁻¹ and the Kobs ([1]; 37° C., alkyne 2d 0.35 mM, Expt. 3) was 2.65 h⁻¹. For the same molecule, the “k2 at 37° C. (second order rate constant)” value ([1]; alkyne 2b, 37° C.) was 0.14 M⁻¹ s⁻¹ and 0.14 ± 0.04 M⁻¹ s⁻¹, the “k2 at r.t (second order rate constant)” value ([1]; alkyne 2b, r.t) was 0.042 M⁻¹ s⁻¹ and 0.042 ± 0.012 M⁻¹ s⁻¹ and the “k2 at 37° C. (second order rate constant)” value ([1]; alkyne 2c, 37° C.) was 0.021 M⁻¹ s⁻¹ and 0.021 ± 0.005 M⁻¹ s⁻¹. For the same molecule, the “k2 at r.t (second order rate constant)” value ([1]; alkyne 2c, r.t) was 0.0075 M⁻¹ s⁻¹ and 0.0075 ± 0.0009 M⁻¹ s⁻¹, the “k2 at 37° C. (second order rate constant)” value ([1]; alkyne 2d, 37° C.) was 1.9 M⁻¹ s⁻¹ and 1.9 ± 0.4 M⁻¹ s⁻¹ and the “k2 at r.t (second order rate constant)” value ([1]; alkyne 2d, r.t) was 0.25 M⁻¹ s⁻¹ and 0.25 ± 0.06 M⁻¹ s⁻¹. It also gave a Kobs ([1]; r.t, alkyne 2b 0.75 mM, Expt. 1) of 0.125 h⁻¹, a Kobs ([1]; r.t, alkyne 2b 0.75 mM, Expt. 2) of 0.115 h⁻¹ and a Kobs ([1]; r.t, alkyne 2b 0.75 mM, Expt. 3) of 0.13 h⁻¹. For the same molecule, the Kobs ([1]; r.t, alkyne 2b 1.00 mM, Expt. 1) was 0.155 h⁻¹, the Kobs ([1]; r.t, alkyne 2b 1.00 mM, Expt. 2) was 0.148 h⁻¹ and the Kobs ([1]; r.t, alkyne 2b 1.00 mM, Expt. 3) was 0.175 h⁻¹. It also gave a Kobs ([1]; r.t, alkyne 2b 1.25 mM, Expt. 1) of 0.199 h⁻¹, a Kobs ([1]; r.t, alkyne 2b 1.25 mM, Expt. 2) of 0.180 h⁻¹ and a Kobs ([1]; r.t, alkyne 2b 1.25 mM, Expt. 3) of 0.22 h⁻¹. It also gave a Kobs ([1]; r.t, alkyne 2c 0.75 mM, Expt. 1) of 0.0203 h⁻¹, a Kobs ([1]; r.t, alkyne 2c 0.75 mM, Expt. 2) of 0.0201 h⁻¹ and a Kobs ([1]; r.t, alkyne 2c 0.75 mM, Expt. 3) of 0.0217 h⁻¹. For the same molecule, the Kobs ([1]; r.t, alkyne 2c 1.00 mM, Expt. 1) was 0.0273 h⁻¹, the Kobs ([1]; r.t, alkyne 2c 1.00 mM, Expt. 2) was 0.0269 h⁻¹ and the Kobs ([1]; r.t, alkyne 2c 1.00 mM, Expt. 3) was 0.0289 h⁻¹. For the same molecule, the Kobs ([1]; r.t, alkyne 2c 1.25 mM, Expt. 1) was 0.0339 h⁻¹, the Kobs ([1]; r.t, alkyne 2c 1.25 mM, Expt. 2) was 0.0324 h⁻¹ and the Kobs ([1]; r.t, alkyne 2c 1.25 mM, Expt. 3) was 0.0359 h⁻¹. The Kobs ([1]; r.t, alkyne 2d 0.75 mM, Expt. 1) was 0.752 h⁻¹, the Kobs ([1]; r.t, alkyne 2d 0.75 mM, Expt. 2) was 0.704 h⁻¹ and the Kobs ([1]; r.t, alkyne 2d 0.75 mM, Expt. 3) was 0.756 h⁻¹. For the same molecule, the Kobs ([1]; r.t, alkyne 2d 1.00 mM, Expt. 1) was 0.980 h⁻¹, the Kobs ([1]; r.t, alkyne 2d 1.00 mM, Expt. 2) was 0.802 h⁻¹ and the Kobs ([1]; r.t, alkyne 2d 1.00 mM, Expt. 3) was 1.01 h⁻¹. For the same molecule, the Kobs ([1]; r.t, alkyne 2d 1.25 mM, Expt. 1) was 1.20 h⁻¹, the Kobs ([1]; r.t, alkyne 2d 1.25 mM, Expt. 2) was 1.10 h⁻¹ and the Kobs ([1]; r.t, alkyne 2d 1.25 mM, Expt. 3) was 1.26 h⁻¹. For the same molecule, the “Prodrugs remaining, 24 h in PBS with 1 mM Cys at 37° C.” value ([2]; PBS (5% DMSO) with 1 mM Cys, 37° C.) was 81 ± 5%, the “Prodrugs remaining, 24 h in PBS with 1 mM Cys at r.t” value ([2]; PBS (5% DMSO) with 1 mM Cys, r.t) was 88 ± 5% and the “Prodrugs remaining, 24 h in PBS at 37° C.” value ([2]; PBS (5% DMSO), 37° C.) was 85 ± 5%. The “Prodrugs remaining, 24 h in PBS at r.t” value ([2]; PBS (5% DMSO), r.t) was 91 ± 5%.

Source: patent US11607458B2 (Georgia State University Research Foundation, Inc, priority 2017, dated 2023)
